Each structure is given as a SMILES string. pKi: −log10 of the molar value. Read-outs that look alike come from different tables or passages of the source.

In one assay the target is α4β2 nAChR Subtype (Rattus norvegicus, UniProt P09483+P12390). The experiment in a line: Radioligand binding at α4β2 nAChR subtype, inhibition of [3H]nicotine binding, rat cerebral cortex membranes. The settings on record: [3H]nicotine 5 nM. Here is the method: The [^3H]nicotine (Specific Activity=81.5 Ci/mmol) was obtained from NEN Research Products. The binding of [^3H]nicotine was measured using a 3 h incubation at 4° C. […] Each filter was washed with ice-cold buffer (3×1 mL).
Sequence of α4β2 nAChR Subtype (P09483 31-630): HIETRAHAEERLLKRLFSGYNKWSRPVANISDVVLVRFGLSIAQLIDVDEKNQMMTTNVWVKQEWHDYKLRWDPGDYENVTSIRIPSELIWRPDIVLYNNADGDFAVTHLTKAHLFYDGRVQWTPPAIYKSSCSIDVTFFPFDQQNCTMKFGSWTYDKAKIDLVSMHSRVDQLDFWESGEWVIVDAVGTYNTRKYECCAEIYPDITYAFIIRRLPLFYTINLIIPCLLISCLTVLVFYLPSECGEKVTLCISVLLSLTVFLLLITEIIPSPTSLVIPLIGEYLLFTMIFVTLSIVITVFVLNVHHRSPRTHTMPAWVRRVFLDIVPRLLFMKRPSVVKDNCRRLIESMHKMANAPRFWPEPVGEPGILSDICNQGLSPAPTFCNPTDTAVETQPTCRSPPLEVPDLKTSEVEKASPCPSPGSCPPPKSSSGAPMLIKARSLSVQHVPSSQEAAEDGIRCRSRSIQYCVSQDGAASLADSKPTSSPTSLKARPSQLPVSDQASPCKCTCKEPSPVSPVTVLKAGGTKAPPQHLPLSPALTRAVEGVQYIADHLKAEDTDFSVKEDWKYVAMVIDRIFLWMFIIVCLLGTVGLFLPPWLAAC
Sequence of α4β2 nAChR Subtype (P12390 25-500): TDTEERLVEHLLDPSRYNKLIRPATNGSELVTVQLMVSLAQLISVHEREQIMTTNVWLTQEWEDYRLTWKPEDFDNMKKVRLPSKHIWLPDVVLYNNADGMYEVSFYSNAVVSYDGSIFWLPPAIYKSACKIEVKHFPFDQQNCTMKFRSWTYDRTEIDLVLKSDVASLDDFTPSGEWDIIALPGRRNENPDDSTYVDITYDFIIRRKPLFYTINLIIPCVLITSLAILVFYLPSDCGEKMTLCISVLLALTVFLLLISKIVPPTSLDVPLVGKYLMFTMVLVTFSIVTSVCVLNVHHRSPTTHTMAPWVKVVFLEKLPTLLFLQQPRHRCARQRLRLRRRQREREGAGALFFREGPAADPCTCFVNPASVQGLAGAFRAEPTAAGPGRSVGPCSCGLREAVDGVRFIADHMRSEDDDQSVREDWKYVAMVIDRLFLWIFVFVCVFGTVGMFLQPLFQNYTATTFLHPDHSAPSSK
Each concentration was replicated in triplicate.

In another assay the target is α7 nAChR Subtype (Rattus norvegicus, UniProt Q05941). The experiment in a line: Radioligand binding at α7 nAChR subtype, inhibition of [3H]MLA binding, rat hippocampus membranes (HTS at 5 μM, then Ki). The settings on record: for inhibition at 5 µM: read-out: α7 HTS outcome (α7 Ki).
Sequence of α7 nAChR Subtype (Q05941 23-502): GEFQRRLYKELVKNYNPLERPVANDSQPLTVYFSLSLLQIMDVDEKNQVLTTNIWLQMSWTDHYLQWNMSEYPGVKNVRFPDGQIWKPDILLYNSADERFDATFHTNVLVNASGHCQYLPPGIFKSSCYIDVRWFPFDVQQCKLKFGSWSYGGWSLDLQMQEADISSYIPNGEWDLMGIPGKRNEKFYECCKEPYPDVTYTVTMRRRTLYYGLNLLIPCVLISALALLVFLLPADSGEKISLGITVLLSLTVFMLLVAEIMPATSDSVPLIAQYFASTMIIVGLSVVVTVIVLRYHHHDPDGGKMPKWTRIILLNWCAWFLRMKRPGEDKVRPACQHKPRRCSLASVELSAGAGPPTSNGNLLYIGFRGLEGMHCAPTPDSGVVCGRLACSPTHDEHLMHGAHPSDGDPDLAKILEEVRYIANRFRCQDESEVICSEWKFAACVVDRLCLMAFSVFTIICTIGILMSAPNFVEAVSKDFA
The target in a further assay is Human α4β2 (Homo sapiens, UniProt P17787+P43681). The experiment in a line: Binding at human α4β2 (Ki); method not described.
Sequence of Human α4β2 (P43681 29-627 limits assumed): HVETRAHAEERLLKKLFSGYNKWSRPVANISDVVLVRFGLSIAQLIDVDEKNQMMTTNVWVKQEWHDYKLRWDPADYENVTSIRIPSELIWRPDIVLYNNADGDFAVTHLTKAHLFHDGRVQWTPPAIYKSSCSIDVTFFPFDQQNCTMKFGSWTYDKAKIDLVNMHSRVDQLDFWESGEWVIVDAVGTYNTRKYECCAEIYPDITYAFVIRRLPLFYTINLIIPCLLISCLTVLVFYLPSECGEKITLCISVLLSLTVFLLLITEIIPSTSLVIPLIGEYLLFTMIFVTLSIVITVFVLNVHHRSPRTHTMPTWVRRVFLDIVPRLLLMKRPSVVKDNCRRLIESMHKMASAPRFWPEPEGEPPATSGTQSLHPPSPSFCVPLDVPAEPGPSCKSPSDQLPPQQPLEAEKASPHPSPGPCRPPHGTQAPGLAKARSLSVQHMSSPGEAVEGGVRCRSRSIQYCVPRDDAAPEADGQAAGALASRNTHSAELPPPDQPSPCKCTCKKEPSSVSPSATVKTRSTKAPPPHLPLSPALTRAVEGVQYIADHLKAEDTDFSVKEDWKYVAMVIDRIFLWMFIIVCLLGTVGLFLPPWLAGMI
Sequence of Human α4β2 (P17787 26-502): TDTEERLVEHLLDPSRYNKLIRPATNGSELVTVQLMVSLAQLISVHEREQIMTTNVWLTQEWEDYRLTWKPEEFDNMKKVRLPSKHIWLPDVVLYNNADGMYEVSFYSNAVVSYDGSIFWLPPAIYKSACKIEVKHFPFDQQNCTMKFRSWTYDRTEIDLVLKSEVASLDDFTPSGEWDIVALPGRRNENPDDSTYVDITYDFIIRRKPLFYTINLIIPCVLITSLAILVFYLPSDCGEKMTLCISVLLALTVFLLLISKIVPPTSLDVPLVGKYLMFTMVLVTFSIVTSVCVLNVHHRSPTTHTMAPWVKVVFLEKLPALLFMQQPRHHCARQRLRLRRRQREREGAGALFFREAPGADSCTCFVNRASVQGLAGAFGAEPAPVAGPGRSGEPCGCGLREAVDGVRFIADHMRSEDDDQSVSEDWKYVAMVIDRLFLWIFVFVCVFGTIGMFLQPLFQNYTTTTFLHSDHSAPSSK
[1] abbreviates: read-out: α7 Ki, [3H]MLA 5 nM, rat hippocampus.

As a reminder, the pKi is the negative decadic logarithm of the Ki, by convention in mol/L. Regarding `O=C(OC1CC=CC1)C1C[C@H]2CNC[C@H]2C1` (mixture of isomers) [cyclopent-3-en-1-yl 3-azabicyclo[3.3.0]octane-7-carboxylate], the pKi on α4β2 nAChR Subtype (read-out: Rat α4β2 Ki) was 7.23; on α7 nAChR Subtype (setting [1]) it was below 5.00; at Human α4β2, 7.65.
Take `O=C(OC1CCCC1)C1C[C@H]2CNC[C@H]2C1` (mixture of isomers) [cyclopentyl 3-azabicyclo[3.3.0]octane-7-carboxylate]: the figures for the negative logarithm of the Ki (pKi) at α4β2 nAChR Subtype (read-out: Rat α4β2 Ki) and at Human α4β2 were 7.58 and 7.86, respectively. Besides, at α7 nAChR Subtype, the inhibition at 5 µM was below 50%.
Consider `O=C(C1CCCC1)C1C[C@H]2CNC[C@H]2C1` (mixture of isomers) [cyclopentyl(3-azabicyclo[3.3.0]oct-7-yl)methanone], for which the pKi on α4β2 nAChR Subtype (read-out: Rat α4β2 Ki) is 7.80; at Human α4β2, 8.12. The inhibition at 5 µM on α7 nAChR Subtype is below 50%.
`O=C(OCC1CC1)C1C[C@H]2CNC[C@H]2C1` (mixture of isomers) [cyclopropylmethyl 3-azabicyclo[3.3.0]octane-7-carboxylate]: the negative-log Ki (pKi) on α4β2 nAChR Subtype (Rat α4β2 Ki) was 7.21; on α7 nAChR Subtype, below 5.00; at Human α4β2 it was 7.39.
For the molecule `CCOC(=O)C1C[C@H]2CNC[C@H]2C1` (mixture of isomers) [ethyl 3-azabicyclo[3.3.0]octane-7-carboxylate], the negative logarithm of the Ki (pKi) at α4β2 nAChR Subtype (read-out: Rat α4β2 Ki) is 7.34; at Human α4β2, 7.76. For the same molecule, the inhibition at 5 µM at α7 nAChR Subtype is below 50%.
Take `CC(C)OC(=O)C1C[C@H]2CNC[C@H]2C1` (mixture of isomers) [isopropyl 3-azabicyclo[3.3.0]octane-7-carboxylate]: the results for the negative-log Ki (pKi) on α4β2 nAChR Subtype (read-out: Rat α4β2 Ki), on α7 nAChR Subtype and on Human α4β2 were 6.99, below 5.00 and 8.11, respectively.
With `C#CCC(C)OC(=O)C1C[C@H]2CNC[C@H]2C1` (mixture of isomers) [pent-4-yn-2-yl 3-azabicyclo[3.3.0]octane-7-carboxylate], the results for the negative-log Ki (pKi) on α4β2 nAChR Subtype (read-out: Rat α4β2 Ki) and at Human α4β2 were 6.84 and 7.16, respectively. Moreover, the inhibition at 5 µM at α7 nAChR Subtype was below 50%.
For the molecule `O=C(c1ccncc1)C1C[C@H]2CNC[C@H]2C1` (mixture of isomers) [pyridin-4-yl(3-azabicyclo[3.3.0]oct-7-yl)methanone], the pKi on α4β2 nAChR Subtype (read-out: Rat α4β2 Ki) is 7.37; at Human α4β2, 7.44. The inhibition at 5 µM at α7 nAChR Subtype was below 50%.
For `O=C(OC1CCOCC1)C1C[C@H]2CNC[C@H]2C1` (mixture of isomers) [tetrahydropyran-4-yl 3-azabicyclo[3.3.0]octane-7-carboxylate], in that order: 7.16, 6.83 and below 50%.
Consider `NC(=O)C1CC2CNCC(C2)C1` (stereo not drawn) [3-azabicyclo[3.3.1]nonane-7-carboxamide], for which the values for the pKi on α4β2 nAChR Subtype (read-out: Rat α4β2 Ki), at α7 nAChR Subtype and on Human α4β2 were 7.39, below 5.00 and 7.11, respectively.
Take `O=C(C1CC2CNCC(C2)C1)N1CCOCC1` (stereo not drawn) [4-morpholinyl(3-azabicyclo[3.3.1]non-7-yl)methanone]: the pKi is 7.20 on α4β2 nAChR Subtype (read-out: Rat α4β2 Ki) and 7.65 at Human α4β2. Moreover, on α7 nAChR Subtype, the inhibition at 5 µM is below 50%.
For `CC1COCC(C)N1C(=O)C1C[C@H]2CNC[C@H]2C1` (stereo partly drawn) [(3-azabicyclo[3.3.0]oct-7-yl)(2,6-dimethylmorpholin-1-yl)methanone], in that order: 7.24, 7.15 and below 50%.
As to `CN(C)C(=O)C1=C[C@@H]2CNC[C@@H]2C1` [N,N-dimethyl-3-azabicyclo[3.3.0]oct-6-ene-7-carboxamide], the negative-log Ki (pKi) was 7.22 on α4β2 nAChR Subtype (Rat α4β2 Ki), below 5.00 on α7 nAChR Subtype and 6.79 on Human α4β2.
Regarding `CN(C)C(=O)C1CC2CNCC(C2)C1` (stereo not drawn) [N,N-dimethyl-3-azabicyclo[3.3.1]nonane-7-carboxamide], the values for the pKi at α4β2 nAChR Subtype (Rat α4β2 Ki), at α7 nAChR Subtype and at Human α4β2 were 7.11, below 5.00 and 7.27, respectively.
Regarding `O=C(NCC(F)(F)F)C1CC2CNCC(C2)C1` (stereo not drawn) [N-(2,2,2-trifiuoroethyl)-3-azabicyclo[3.3.1]nonane-7-carboxamide], the negative-log Ki (pKi) at α4β2 nAChR Subtype (read-out: Rat α4β2 Ki) is 7.39; at α7 nAChR Subtype (setting [1]), below 5.00; at Human α4β2, 7.64.
Turning to `O=C(NCCF)C1CC2CNCC(C2)C1` (stereo not drawn) [N-(2-fluoroethyl)-3-azabicyclo[3.3.1]nonane-7-carboxamide], the pKi is 6.91 at α4β2 nAChR Subtype (Rat α4β2 Ki), below 5.00 on α7 nAChR Subtype and 7.87 on Human α4β2.
In the case of `O=C(Nc1ccccc1F)C1CC2CNCC(C2)C1` (stereo not drawn) [N-(2-fluorophenyl)-3-azabicyclo[3.3.1]nonane-7-carboxamide], the values for the pKi at α4β2 nAChR Subtype (read-out: Rat α4β2 Ki) and on Human α4β2 were 7.20 and 7.62, respectively. On α7 nAChR Subtype, the inhibition at 5 µM was below 50%.
In the same order, the values of `COCCNC(=O)C1CC2CNCC(C2)C1` (stereo not drawn) [N-(2-methoxyethyl)-3-azabicyclo[3.3.1]nonane-7-carboxamide] are 6.34, 6.11 and below 50%.
In the same order, the values of `O=C(NC1CC=CC1)C1CC2CNCC(C2)C1` (stereo not drawn) [N-(3-cyclopentenyl)-3-azabicyclo[3.3.1]nonane-7-carboxamide] are 7.34, 7.61 and below 50%.
In the same order, the values of `O=C(NCCCF)C1CC2CNCC(C2)C1` (stereo not drawn) [N-(3-fluoropropyl)-3-azabicyclo[3.3.1]nonane-7-carboxamide] are 7.35, 7.63 and below 50%.
Turning to `O=C(Nc1ccc(F)cc1)C1CC2CNCC(C2)C1` (stereo not drawn) [N-(4-fluorophenyl)-3-azabicyclo[3.3.1]nonane-7-carboxamide], the values for the pKi at α4β2 nAChR Subtype (read-out: Rat α4β2 Ki) and on Human α4β2 were 7.04 and 7.49, respectively. For the same molecule, on α7 nAChR Subtype, the inhibition at 5 µM was below 50%.
In the same order, the values of `O=C(NC1CCC1)C1CC2CNCC(C2)C1` (stereo not drawn) [N-(cyclobutyl)-3-azabicyclo[3.3.1]nonane-7-carboxamide] are 6.87, 6.51 and below 50%.
In the same order, the values of `O=C(NCC1CC1)C1CC2CNCC(C2)C1` (stereo not drawn) [N-(cyclopropylmethyl)-3-azabicyclo[3.3.1]nonane-7-carboxamide] are 7.16, 7.04 and below 50%.
For `C=CCNC(=O)C1CC2CNCC(C2)C1` (stereo not drawn) [N-allyl-3-azabicyclo[3.3.1]nonane-7-carboxamide], in that order: 7.51, 8.37 and below 50%.
On to `O=C(NCc1ccccc1)C1CC2CNCC(C2)C1` (stereo not drawn) [N-benzyl-3-azabicyclo[3.3.1]nonane-7-carboxamide], for which the pKi is 6.05 on α4β2 nAChR Subtype (read-out: Rat α4β2 Ki) and 8.05 at Human α4β2. Further, the inhibition at 5 µM at α7 nAChR Subtype is below 50%.
For `O=C(NC1CCCC1)C1CC2CNCC(C2)C1` (stereo not drawn) [N-cyclopentyl-3-azabicyclo[3.3.1]nonane-7-carboxamide], in that order: 6.99, 7.57 and below 50%.
For `O=C(NC1CC1)C1CC2CNCC(C2)C1` (stereo not drawn) [N-cyclopropyl-3-azabicyclo[3.3.1]nonane-7-carboxamide], in that order: 6.15, 7.81 and below 50%.
Take `CCNC(=O)C1CC2CNCC(C2)C1` (stereo not drawn) [N-ethyl-3-azabicyclo[3.3.1]nonane-7-carboxamide]: the values for the pKi at α4β2 nAChR Subtype (read-out: Rat α4β2 Ki) and at Human α4β2 were 7.87 and 8.19, respectively. Besides, the inhibition at 5 µM on α7 nAChR Subtype is below 50%.
In the same order, the values of `CC(C)NC(=O)C1CC2CNCC(C2)C1` (stereo not drawn) [N-isopropyl-3-azabicyclo[3.3.1]nonane-7-carboxamide] are 7.09, 7.51 and below 50%.
Regarding `C#CCN(C)C(=O)C1C[C@H]2CNC[C@H]2C1` (stereo partly drawn) [N-methyl-N-prapargyl-3-azabicyclo[3.3.0]octane-7-carboxamide], the pKi on α4β2 nAChR Subtype (read-out: Rat α4β2 Ki) was 6.86; at α7 nAChR Subtype, at most 5.00; at Human α4β2, 7.28.
As for `CCCNC(=O)C1CC2CNCC(C2)C1` (stereo not drawn) [N-propyl-3-azabicyclo[3.3.1]nonane-7-carboxamide], the pKi was 7.67 at α4β2 nAChR Subtype (read-out: Rat α4β2 Ki) and 7.98 on Human α4β2. Also, on α7 nAChR Subtype, the inhibition at 5 µM is below 50%.
Consider `CCC(C)NC(=O)C1CC2CNCC(C2)C1` (stereo not drawn) [N-sec-butyl-3-azabicyclo[3.3.1]nonane-7-carboxamide], for which the negative-log Ki (pKi) on α4β2 nAChR Subtype (read-out: Rat α4β2 Ki) was 6.57; at α7 nAChR Subtype (setting [1]) it was below 5.00; at Human α4β2, 7.37.
Turning to `CC(C)(C)NC(=O)C1CC2CNCC(C2)C1` (stereo not drawn) [N-tert-butyl-3-azabicyclo[3.3.1]nonane-7-carboxamide], the pKi on α4β2 nAChR Subtype (read-out: Rat α4β2 Ki) is 7.96; on Human α4β2 it was 8.15. For the same molecule, the inhibition at 5 µM at α7 nAChR Subtype is below 50%.
With `O=C(c1ccco1)[C@H]1C[C@H]2CNC[C@H]2C1` [cis-2-furanyl(3-azabicyclo[3.3.0]oct-7-yl)methanone], the negative-log Ki (pKi) was 7.96 on α4β2 nAChR Subtype (Rat α4β2 Ki) and 7.88 on Human α4β2. In addition, the inhibition at 5 µM on α7 nAChR Subtype was below 50%.
In the case of `N#Cc1ccoc1C(=O)[C@H]1C[C@H]2CNC[C@H]2C1` [cis-3-cyanofuran-2-yl(3-azabicyclo[3.3.0]oct-7-yl)methanone], the negative-log Ki (pKi) on α4β2 nAChR Subtype (read-out: Rat α4β2 Ki) is 7.85; on Human α4β2, 7.59. Besides, on α7 nAChR Subtype, the inhibition at 5 µM is below 50%.
For `O=C(OC1CCOC1)C1C[C@H]2CNC[C@H]2C1` (stereo partly drawn) [tetrahydrofuran-3-yl 3-azabicyolo[3.3.0]octane-7-carboxylate], the pKi on α4β2 nAChR Subtype (read-out: Rat α4β2 Ki) is 6.89; on α7 nAChR Subtype, below 5.00; at Human α4β2, 6.92.
Take `CCCCC(=O)[C@@H]1C[C@H]2CNC[C@H]2C1` [trans-1-(3-azabicyclo[3.3.0]oct-7-yl)-1-pentanone]: the pKi on α4β2 nAChR Subtype (read-out: Rat α4β2 Ki) was 6.97; on Human α4β2 it was 6.73. In addition, the inhibition at 5 µM on α7 nAChR Subtype was below 50%.
As to `C/C=C/C(=O)C1C[C@H]2CNC[C@H]2C1` (stereo partly drawn) [trans-1-(3-azabicyclo[3.3.0]oct-7-yl)-2-buten-1-one], the results for the pKi at α4β2 nAChR Subtype (Rat α4β2 Ki), at α7 nAChR Subtype and on Human α4β2 were 7.81, below 5.00 and 7.53, respectively.

For the origin of these results see patent US20100173968A1, “SUB-TYPE SELECTIVE AZABICYCLOALKANE DERIVATIVES” (TARGACEPT, INC., priority 2007, published 2010).
